Patent US20240252454A1, “COMPOSITION COMPRISING AN INHIBITOR OF MITOCHONDRIAL TRANSCRIPTION” (LEAD DISCOVERY CENTER GMBH, priority 2021, published 2024)

Assays:
Assay in all cases: SRB assay, IMT combined with inhibitor
Format in all cases: cell-based
A549 = A549 (lung); concentration series of the labelled inhibitor + fixed concentration of IMT (3S)-1-[(2R)-2-[4-(2-chloro-4-fluoro-phenyl)-2-oxo-chromen-7-yl]oxypropanoyl]piperidine-3-carboxylic acid (Table 3: 40 nM, 120 h); negative=synergistic, positive=antagonistic
Outline: (§1)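 SRB biomass readout; 120 h exposure; 5 mM glucose medium; ≥2 independent replicates. MAPK SOC dilution series + fixed 40 nM (3S)-1-[(2R)-2-[4-(2-chloro-4-fluoro-phenyl)-2-oxo-chromen-7-yl]oxypropanoyl]piperidine-3-carboxylic acid; untreated cells as negative control.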

A375 = A375 (skin); concentration series of the labelled inhibitor + fixed concentration of IMT (3S)-1-[(2R)-2-[4-(2-chloro-4-fluoro-phenyl)-2-oxo-chromen-7-yl]oxypropanoyl]piperidine-3-carboxylic acid (Table 3: 40 nM, 120 h); negative=synergistic, positive=antagonistic
Outline: as §1

LOVO = LOVO (colon); concentration series of the labelled inhibitor + fixed concentration of IMT (3S)-1-[(2R)-2-[4-(2-chloro-4-fluoro-phenyl)-2-oxo-chromen-7-yl]oxypropanoyl]piperidine-3-carboxylic acid (Table 3: 40 nM, 120 h); negative=synergistic, positive=antagonistic
Outline: as §1

NCIH460 = NCIH460 (lung); concentration series of the labelled inhibitor + fixed concentration of IMT (3S)-1-[(2R)-2-[4-(2-chloro-4-fluoro-phenyl)-2-oxo-chromen-7-yl]oxypropanoyl]piperidine-3-carboxylic acid (Table 3: 40 nM, 120 h); negative=synergistic, positive=antagonistic
Outline: as §1

MIAPACA2 = MIAPACA2 (pancreas); concentration series of the labelled inhibitor + fixed concentration of IMT (3S)-1-[(2R)-2-[4-(2-chloro-4-fluoro-phenyl)-2-oxo-chromen-7-yl]oxypropanoyl]piperidine-3-carboxylic acid (Table 3: 40 nM, 120 h); negative=synergistic, positive=antagonistic
Outline: as §1

JAR = JAR (placenta); concentration series of the labelled inhibitor + fixed concentration of IMT (3S)-1-[(2R)-2-[4-(2-chloro-4-fluoro-phenyl)-2-oxo-chromen-7-yl]oxypropanoyl]piperidine-3-carboxylic acid (Table 3: 40 nM, 120 h); negative=synergistic, positive=antagonistic
Outline: as §1

HCT15 = HCT15 (colon); concentration series of the labelled inhibitor + fixed concentration of IMT (3S)-1-[(2R)-2-[4-(2-chloro-4-fluoro-phenyl)-2-oxo-chromen-7-yl]oxypropanoyl]piperidine-3-carboxylic acid (Table 3: 40 nM, 120 h); negative=synergistic, positive=antagonistic
Outline: as §1

SKOV3 = SKOV3 (ovary); concentration series of the labelled inhibitor + fixed concentration of IMT (3S)-1-[(2R)-2-[4-(2-chloro-4-fluoro-phenyl)-2-oxo-chromen-7-yl]oxypropanoyl]piperidine-3-carboxylic acid (Table 3: 40 nM, 120 h); negative=synergistic, positive=antagonistic
Outline: as §1

CALU6 = CALU6 (lung); concentration series of the labelled inhibitor + fixed concentration of IMT (3S)-1-[(2R)-2-[4-(2-chloro-4-fluoro-phenyl)-2-oxo-chromen-7-yl]oxypropanoyl]piperidine-3-carboxylic acid (Table 3: 40 nM, 120 h); negative=synergistic, positive=antagonistic
Outline: as §1

MV4-11 = MV4-11 (hematological); concentration series of the labelled inhibitor + fixed concentration of IMT (3S)-1-[(2R)-2-[4-(2-chloro-4-fluoro-phenyl)-2-oxo-chromen-7-yl]oxypropanoyl]piperidine-3-carboxylic acid (Table 3: 40 nM, 120 h); negative=synergistic, positive=antagonistic
Outline: as §1

HT1080 = HT1080 (connective tissue); concentration series of the labelled inhibitor + fixed concentration of IMT (3S)-1-[(2R)-2-[4-(2-chloro-4-fluoro-phenyl)-2-oxo-chromen-7-yl]oxypropanoyl]piperidine-3-carboxylic acid (Table 3: 40 nM, 120 h); negative=synergistic, positive=antagonistic
Outline: as §1

A673 = A673 (muscle); concentration series of the labelled inhibitor + fixed concentration of IMT (3S)-1-[(2R)-2-[4-(2-chloro-4-fluoro-phenyl)-2-oxo-chromen-7-yl]oxypropanoyl]piperidine-3-carboxylic acid (Table 3: 40 nM, 120 h); negative=synergistic, positive=antagonistic
Outline: as §1

DU145 = DU145 (prostate); concentration series of the labelled inhibitor + fixed concentration of IMT (3S)-1-[(2R)-2-[4-(2-chloro-4-fluoro-phenyl)-2-oxo-chromen-7-yl]oxypropanoyl]piperidine-3-carboxylic acid (Table 3: 40 nM, 120 h); negative=synergistic, positive=antagonistic
Outline: as §1

SKMEL28 = SKMEL28 (skin); concentration series of the labelled inhibitor + fixed concentration of IMT (3S)-1-[(2R)-2-[4-(2-chloro-4-fluoro-phenyl)-2-oxo-chromen-7-yl]oxypropanoyl]piperidine-3-carboxylic acid (Table 3: 40 nM, 120 h); negative=synergistic, positive=antagonistic
Outline: as §1

HELA = HELA (cervix); concentration series of the labelled inhibitor + fixed concentration of IMT (3S)-1-[(2R)-2-[4-(2-chloro-4-fluoro-phenyl)-2-oxo-chromen-7-yl]oxypropanoyl]piperidine-3-carboxylic acid (Table 3: 40 nM, 120 h); negative=synergistic, positive=antagonistic
Outline: as §1

**Q.** What does the source list for `O=C(c1ccc(F)c(F)c1Nc1ccc(I)cc1F)N1CC(O)([C@@H]2CCCCN2)C1` [Cobimetinib]?
**A.** difference between the calculated combinatorial index (BLISS) and the observed combinatorial effect (A549): −0.0490; difference between the calculated combinatorial index (BLISS) and the observed combinatorial effect (A375): 0.0443; difference between the calculated combinatorial index (BLISS) and the observed combinatorial effect (LOVO): −0.0754; difference between the calculated combinatorial index (BLISS) and the observed combinatorial effect (NCIH460): −0.0338; difference between the calculated combinatorial index (BLISS) and the observed combinatorial effect (MIAPACA2): −0.0673; difference between the calculated combinatorial index (BLISS) and the observed combinatorial effect (JAR): 0.0139; difference between the calculated combinatorial index (BLISS) and the observed combinatorial effect (HCT15): 0.0539; difference between the calculated combinatorial index (BLISS) and the observed combinatorial effect (SKOV3): 0.0499; difference between the calculated combinatorial index (BLISS) and the observed combinatorial effect (CALU6): 0.0286; difference between the calculated combinatorial index (BLISS) and the observed combinatorial effect (MV4-11): 0.0051; difference between the calculated combinatorial index (BLISS) and the observed combinatorial effect (HT1080): −0.0482; difference between the calculated combinatorial index (BLISS) and the observed combinatorial effect (A673): 0.0185; difference between the calculated combinatorial index (BLISS) and the observed combinatorial effect (DU145): 0.0164; difference between the calculated combinatorial index (BLISS) and the observed combinatorial effect (SKMEL28): −0.0040; difference between the calculated combinatorial index (BLISS) and the observed combinatorial effect (HELA): −0.0068
